Measurements: patent US20080207614A1, “QUINAZOLINE DERIVATIVES FOR THE TREATMENT AND PREVENTION OF DIABETES AND OBESITY” (SK CHEMICALS CO., LTD., priority 2004, published 2008)

How the values were obtained:
AMPK = assay: Measurement of AMPK activity by Western blot in C2C12 cells; assay type: cell-based; parameters: key to AMPK activity (degree of phosphorylation of serine-79 and threonine-172): fold increase in threonine-172 phosphorylation; conditions: 10 μM for 50 minutes; for AMPK activity (degree of phosphorylation of serine-79 and threonine-172): no superscript: Western blot of serine-79 and threonine-172 phosphorylation; for AMPK activity (class: degree of phosphorylation of threonine-172): strong/mild/weak
Method in brief: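 Differentiated C2C12 cells were exposed to test material at 10 μM for 50 minutes, then lysed. AMPK activity was taken from Western blots of Thr-172 phosphorylation and acetyl CoA carboxylase Ser-79 phosphorylation, with ERK as loading reference. Thr-172 rise was graded strong (≥3-fold), mild (1-3-fold) or weak (<1-fold).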

C2C12 muscle cells = assay: Analysis of glucose absorption (2-deoxyglucose) in differentiated C2C12 muscle cells; assay type: cell-based; conditions: test materials 10 μM, times relative to control group
Method in brief: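 Differentiated C2C12 myotubes (6 days in 1% serum) held 3 h in KRB with 5 mM glucose, then given test material at 10 μM. After 30 min, 0.2 μCi 2-deoxyglucose added for 20 min; uptake measured by radioactive counting of NaOH lysates.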

c1ccc(-c2nc(NCc3cccc4ccccc34)c3ccccc3n2)nc1 [Compound 229, Naphthaleno-1-ylmethyl-(2-pyridino-2-ylquinazolino-4-yl)-amine]
AMPK activity (degree of phosphorylation of serine-79 and threonine-172) (AMPK): 4.7 | AMPK activity (class: degree of phosphorylation of threonine-172) (AMPK): strong (“strong” means that the degree of phosphorylation of threonine-172 increased by 3 times or more) | Glucose absorption (C2C12 muscle cells): 1.9

CCSc1nc(NCCCCc2ccccc2)c2ccccc2n1 [Compound 30, (2-Ethylsulfanylquinazolino-4-yl)-(4-phenylbutyl)-amine]
AMPK activity (class: degree of phosphorylation of threonine-172) (AMPK): mild (“mild” means that the degree of phosphorylation of threonine-172 increased by 1 to 3 times) | Glucose absorption (C2C12 muscle cells): 1.8

c1ccc(-c2nc(NCC(c3ccccc3)c3ccccc3)c3ccccc3n2)cc1 [Compound 133, (2,2-Diphenylethyl)-(2-phenylquinazolino-4-yl)-amine]
AMPK activity (degree of phosphorylation of serine-79 and threonine-172) (AMPK): 1.3 | AMPK activity (class: degree of phosphorylation of threonine-172) (AMPK): mild (“mild” means that the degree of phosphorylation of threonine-172 increased by 1 to 3 times) | Glucose absorption (C2C12 muscle cells): 2.1

c1ccc(-c2nc(NCCN3CCCCC3)c3ccccc3n2)cc1 [Compound 101, (2-Phenylquinazolino-4-yl)-(2-piperidino-1-ylethyl)-amine]
AMPK activity (class: degree of phosphorylation of threonine-172) (AMPK): weak (“weak” means that the degree of phosphorylation of threonine-172 increased by less than 1 time) | Glucose absorption (C2C12 muscle cells): 1.5

COc1cc(CNc2nc(N3CCCCC3)nc3ccccc23)cc(OC)c1 [Compound 304, (3,5-Dimethoxybenzyl)-(2-piperidino-1-ylquinazolino-4-yl)-amine]
AMPK activity (degree of phosphorylation of serine-79 and threonine-172) (AMPK): 1.4 | Glucose absorption (C2C12 muscle cells): 0.8

COc1ccc(CNc2nc(N3CCCC3)nc3ccccc23)cc1 [Compound 283, (4-Methoxybenzyl)-(2-pyrrolidino-1-ylquinazolino-4-yl)-amine]
AMPK activity (degree of phosphorylation of serine-79 and threonine-172) (AMPK): 1.1 | Glucose absorption (C2C12 muscle cells): 1.0

CC(C)c1nc(NCCCCc2ccccc2)c2ccccc2n1 [Compound 180, (2-Isopropylquinazolino-4-yl)-(4-phenylbutyl)-amine]
AMPK activity (degree of phosphorylation of serine-79 and threonine-172) (AMPK): 3.9 | AMPK activity (class: degree of phosphorylation of threonine-172) (AMPK): strong (“strong” means that the degree of phosphorylation of threonine-172 increased by 3 times or more) | Glucose absorption (C2C12 muscle cells): 4.1

COc1cccc(CNc2nc(C(OC)c3ccccc3)nc3ccccc23)c1 (stereo not shown) [Compound 361, (3-Methoxybenzyl)-[2-(methoxyphenylmethyl)-quinazolino-4-yl]-amine]
AMPK activity (degree of phosphorylation of serine-79 and threonine-172) (AMPK): 2.1 | Glucose absorption (C2C12 muscle cells): 1.3

COc1ccccc1CNc1nc(C2CC2)nc2ccccc12 [Compound 382, (2-Cyclopropylquinazolino-4-yl)-(2-methoxybenzyl)-amine]
AMPK activity (degree of phosphorylation of serine-79 and threonine-172) (AMPK): 2.2 | Glucose absorption (C2C12 muscle cells): 1.2

Cc1nc(NCCCCc2ccccc2)c2ccccc2n1 [Compound 168, (2-Methylquinazolino-4-yl)-(4-phenylbutyl)-amine]
AMPK activity (degree of phosphorylation of serine-79 and threonine-172) (AMPK): 8.4 | AMPK activity (class: degree of phosphorylation of threonine-172) (AMPK): strong (“strong” means that the degree of phosphorylation of threonine-172 increased by 3 times or more) | Glucose absorption (C2C12 muscle cells): 3.6

Fc1cccc(CCNc2nc(-c3ccccc3)nc3ccccc23)c1 [Compound 103, [2-(3-Fluorophenyl)-ethyl]-(2-phenylquinazolino-4-yl)-amine]
AMPK activity (degree of phosphorylation of serine-79 and threonine-172) (AMPK): 2.6 | AMPK activity (class: degree of phosphorylation of threonine-172) (AMPK): strong (“strong” means that the degree of phosphorylation of threonine-172 increased by 3 times or more) | Glucose absorption (C2C12 muscle cells): 2.2

COc1ccccc1CNc1ncnc2ccccc12 [Compound 404, (2-Methoxybenzyl)-quinazolino-4-ylamine]
AMPK activity (degree of phosphorylation of serine-79 and threonine-172) (AMPK): 1.9 | Glucose absorption (C2C12 muscle cells): 2.1

CCCc1nc(NCc2ccc(OC)c(OC)c2)c2ccccc2n1 [Compound 399, (3,4-Dimethoxybenzyl)-(2-propylquinazolino-4-yl)-amine]
AMPK activity (degree of phosphorylation of serine-79 and threonine-172) (AMPK): 4.9 | Glucose absorption (C2C12 muscle cells): 1.2
